For this test, the target named is Retinol-binding protein 4 (Homo sapiens, UniProt P02753). Put plainly: Binding Assay: Streptavidin (20 ul) (10 ug/ml Streptavidin type II (Wako Pure Chemical Industries, Ltd.), 10 mM Tris-HCl (pH 7.5), 10 mM NaCl) was added to a 384 well black plate (Nunc MaxiSorp, Thermo Fisher Scientific Inc.), and the plate was subjected to centrifugation (1000 rpm, 1 min) and coated overnight at 4 C. The plate was washed twice with PBST (PBS, 0.05% Tween 20, 100 ul/well) and blocked with 25% Block Ace (Snow Brand Milk Products Co., Ltd., PBS, 100 ul/well). The plate was subjected to centrifugation (1000 rpm, 1 min) and incubated at room temperature for 4 hr or overnight at 4 C. The plate was washed twice with PBST (PBS, 0.05% Tween 20, 100 ul/well), and biotinylate human TTR (stock solution concentration 1.0 mg/ml) diluted 750-fold with PBST was added at 20 ul/well. The plate was subjected to centrifugation (1000 rpm, 1 min) and stood still at room temperature for 1.5 hr or overnight at 4 C. The plate was washed 3 times with PBST (100 ul/well).

Regarding `CC(C)(C)c1ccccc1N1CCN(C(=O)c2nc[nH]n2)CC1`, the IC50 is 15 nM.
